Legend:
[1] = system: tryptophane residues in apo B-100 of LDL; assay: Cu(II)-induced loss of tryptophane fluorescence in LDL; assay type: biochemical; conditions: FIG. 5
Source text: Oxidation of HDL or LDL with Cu(II) goes along with a reduction of the tryptophane residues (Reyftmann et al., 1990, Biochim. Biophys. Acta 1042, pp. 159-167), which can be observed by measuring fluorescence. After adding Cu(II) to an LDL solution, fluorescence initially drops within a few seconds due to quenching effects caused by copper. […] The time before the slower phase changes into the faster phase can be defined as the lag phase, just like with diene conjugation. (Giessauf et.al., 1995, Biochim. Biophys. Acta 1256, pp. 221-232). The faster decline in fluorescence starts about at the same time as the propagation phase of diene conjugation and is most likely based on a reaction of lipid peroxidation products with tryptophane residues. We used this test system, too, to find out whether the accumulation of lemon oil or γ-terpinene in LDL influences the Cu(II)-induced loss of tryptophane fluorescence.

LDL = assay: Cu(II)-induced formation of conjugated dienes in LDL isolated from plasma pre-incubated with the test substance (lag phase); assay type: biochemical; conditions: FIG. 2
Procedure: In-vitro LDL oxidation is a common model for testing various substances for their antioxidant properties because they accumulate in the LDL in vitro due to pre-incubation of the plasma with (primarily lipophilic) test substances (McLean und Hagaman, 1989, Biochemistry 28(1); pp. 321-327, Esterbauer et al, 1991b, Am. J. Clin. Nutr. 53, pp. 315S-321S). After accumulation, the influence of these substances on the oxidability of LDL can be studied.
Continuous measurement of the formation of conjugated dienes in LDL is an accepted method of comparing oxidizability of the lipid portion of various LDL samples (Esterbauer et al. 1989, Free Rad. Res. Comms. 6(1), pp. 67-75; Parthasarathy et al. 1998, Free Rad. Res. 28, pp. 583-591). […] The study was to find out whether accumulation of lemon oil or γ-terpinene in LDL can protect the LDL from Cu(II)-induced oxidation.
In another test, blood plasma was incubated with 0.5, 0.25, 0.1 and 0.01% γ-terpinene and the LDL isolated from it was tested for resistance against cooper-induced oxidation.

With `CC1=CCC(C(C)C)=CC1` [γ-terpinene] the “oxidation of tryptophane residues in LDL” value ([1]; 0.5% of γ-terpinene in the plasma) was “almost completely prevents”, the “early protein oxidation (loss of tryptophane fluorescence)” value ([1]; LDL enriched with γ-terpinene) was “slows down” and the “lag phase of conjugated diene formation” value (LDL; 0.01% γ-terpinene in the plasma) was “clearly extended”. For the same compound, the “extension of the lag phase of conjugated diene formation” value (LDL; 0.1% γ-terpinene in the plasma) was “about 250 minutes”, the “time without reaching the propagation phase” value (LDL; higher concentrations in the plasma (0.25 and 0.5% γ-terpinene)) was greater than 500 min and the “lag phase of conjugated diene formation” value (LDL; plasma incubated with 0.5, 0.25, 0.1 and 0.01% γ-terpinene, copper-induced oxidation) was “expands depending on concentration”.

— patent US20040047922A1, “Preparation with vascular protective and anti-oxidative effect and use thereof” (priority 2000, published 2004)
